Converted amounts (≈) assume the structure as drawn. The source made the active and inactive calls. The calls are words filed in the database; no cut-off is given here.
Tests used:
Candida albicans [1] = assay: Antifungal activity against Candida albicans 90028 ATCC assessed as inhibition of growth at 16 ug/ml after 48 hrs relative to control; format: functional
Candida albicans [2] = assay: Antifungal activity against Candida albicans 90028 ATCC assessed as inhibition of growth at 8 ug/ml after 48 hrs relative to control; format: functional
Candida albicans [3] = assay: Antifungal activity against Candida albicans 90028 ATCC assessed as inhibition of growth at 4 ug/ml after 48 hrs relative to control; format: functional
Candida albicans [4] = assay: Antifungal activity against Candida albicans 90028 ATCC assessed as inhibition of growth at 2 ug/ml after 48 hrs relative to control; format: functional
Candida albicans [5] = assay: Antifungal activity against Candida albicans 90028 ATCC assessed as inhibition of growth at 1 ug/ml after 48 hrs relative to control; format: functional
Candida albicans [6] = assay: Antifungal activity against Candida albicans 90028 ATCC assessed as inhibition of growth at 0.5 ug/ml after 48 hrs relative to control; format: functional
Candida albicans [7] = assay: Antifungal activity against Candida albicans 90028 ATCC assessed as inhibition of growth at 0.25 ug/ml after 48 hrs relative to control; format: functional
Candida albicans [8] = assay: Antifungal activity against Candida albicans 90028 ATCC assessed as inhibition of growth at 0.12 ug/ml after 48 hrs relative to control; format: functional
Candida albicans [9] = assay: Antifungal activity against Candida albicans 90028 ATCC assessed as inhibition of growth at 0.06 ug/ml after 48 hrs relative to control; format: functional
Candida albicans [10] = assay: Antifungal activity against Candida albicans 90028 ATCC assessed as inhibition of growth at 0.03 ug/ml after 48 hrs relative to control; format: functional
Candida albicans [11] = assay: Antifungal activity against Candida albicans 90028 ATCC assessed as decrease in turbidity after 48 hrs relative to control; format: functional
Candida albicans [12] = assay: Antifungal activity against Candida albicans 90028 ATCC assessed as reduction in 99% growth after 48 hrs relative to control; format: functional
[13] = Cytotoxicity against african green monkey Vero cells assessed as reduction in cell viability at 64 to 256 ug/mL after 6 hrs by XTT assay; format: cell-based; conditions: chlorocebus sabaeus, read-out: INH
[14] = Cytotoxicity against african green monkey Vero cells assessed as reduction in cell viability at 4 to 32 ug/mL after 6 hrs by XTT assay; format: cell-based; conditions: chlorocebus sabaeus, read-out: INH
Vero = assay: Cytotoxicity against african green monkey Vero cells assessed as reduction in cell viability at 2 to 0.125 ug/mL after 6 hrs by XTT assay; format: cell-based; conditions: chlorocebus sabaeus
Candida albicans [15] = assay: Inhibition of Wild type Candida albicans SC5314 adhesion to the Caco-2 cell line; format: functional
Candida albicans [16] = assay: Inhibition of Candida albicans kex delta CNA1 mutant adhesion to the Caco-2 cell line; format: functional, organism-based
Candida albicans [17] = assay: Inhibition of Candida albicans with loss of one copy KEX2 allele and both copies of URA3 CNA2 mutant adhesion to the Caco-2 cell line; format: functional
Candida albicans [18] = assay: Inhibition of Candida albicans with loss of both copies KEX2 allele and both copies of URA3 CNA4 mutant adhesion to the Caco-2 cell line; format: functional, organism-based
Candida albicans [19] = assay: Inhibition of Candida albicans 1008 with trp1/kex2 delta mutant adhesion to the Caco-2 cell line; format: functional
Candida albicans [20] = assay: Inhibition of Candida albicans 1008 adhesion to the Caco-2 cell line; format: functional
Nakaseomyces glabratus = assay: Inhibition of Candida glabrate 1010 with kex2 delta mutant and functional TRP1 adhesion to the Caco-2 cell line; format: organism-based
Candida albicans [21] = assay: Inhibition of Candida albicans bioflim formation during Caco2 cell invasion assessed as sessile growth at 16 ug/ml after 18 hrs by confocal laser scanning microscopy; format: functional, organism-based; conditions: Caco-2
Candida albicans [22] = assay: Inhibition of Candida albicans bioflim formation during Caco2 cell invasion assessed as lack of hyphea at 1 ug/ml after 18 hrs by confocal laser scanning microscopy; format: functional, organism-based; conditions: Caco-2
Candida albicans [23] = assay: Inhibition of wild type Candida albicans adherence to Caco2 cells at 16 ug/ml after 18 hrs; format: functional; conditions: Caco-2, 18 h

| SMILES | inhibition at 16 µg/mL (Candida albicans [1]) [%] | inhibition at 8 µg/mL (Candida albicans [2]) [%] | inhibition at 4 µg/mL (Candida albicans [3]) [%] | inhibition at 2 µg/mL (Candida albicans [4]) [%] | inhibition at 1 µg/mL (Candida albicans [5]) [%] | inhibition at 0.5 µg/mL (Candida albicans [6]) [%] | inhibition at 0.25 µg/mL (Candida albicans [7]) [%] | inhibition at 0.12 µg/mL (Candida albicans [8]) [%] | inhibition at 0.06 µg/mL (Candida albicans [9]) [%] | inhibition at 0.03 µg/mL (Candida albicans [10]) [%] | MIC (Candida albicans [11]) [µg/mL] | also measured |
| --- | --- | --- | --- | --- | --- | --- | --- | --- | --- | --- | --- | --- |
| CC(=O)OC(C)CCn1nnc(-c2ccccc2)n1 (racemic) | 98.8 | 99 | 99 | 98.9 | 98.9 | 98.9 | 99 | 98.9 | 98.9 | 98.9 | 4 (≈ 15.4 µM) |  |
| CC(=O)OC(C)CCn1nnc(-c2ccc(C)cc2)n1 (racemic) | 98.9 | 99 | 99 | 99 | 98.9 | 98.9 | 99 | 98.9 | 98.9 | 98.9 | 4 (≈ 14.6 µM) |  |
| CC(=O)OC(C)CCn1nnc(-c2ccccc2Cl)n1 (racemic) | 98.9 | 99 | 99 | 98.9 | 98.9 | 98.9 | 98.9 | 98.9 | 98.9 | 98.9 | 4 (≈ 13.6 µM) |  |
| CC(=O)OC(C)Cn1nnc(-c2ccc(C)cc2)n1 (racemic) | 99 | 99 | 99.1 | 99 | 99.1 | 99 | 98.9 | 99 | 98.9 | 98.7 | 0.5 (≈ 1.92 µM) |  |
| CC(=O)OC(C)Cn1nnc(-c2ccccc2Cl)n1 (racemic) | 99 | 99 | 99 | 99 | 99 | 99 | 99 | 99 | 98.9 | 98.9 |  | MFC (Candida albicans [12]): 0.0313 µg/mL (≈ 0.112 µM); cytotoxicity at 6 h [13]: 13%; cytotoxicity at 6 h [14]: 4%; Activity (Vero): Non-toxic; inhibition (INH) (Candida albicans [15]): 86%; inhibition (Candida albicans [16]): inactive; inhibition (INH) (Candida albicans [17]): 91%; inhibition (Candida albicans [18]): inactive; inhibition (INH) (Candida albicans [19]): 82.89%; inhibition (INH) (Candida albicans [20]): 42.3%; inhibition (Nakaseomyces glabratus): inactive; Activity (Candida albicans [21]): inactive; inhibition (Candida albicans [22]): inactive; inhibition at 16 µg/mL (Candida albicans [23]): 86% |
| CC(O)CCn1nnc(-c2ccccc2)n1 (racemic) | 98.9 | 98.9 | 99 | 98.9 | 99 | 99 | 99 | 99 | 98.9 | 98.8 | 0.125 (≈ 0.573 µM) |  |
| Cc1ccc(-c2nnn(CCC(C)O)n2)cc1 (racemic) | 98.9 | 98.9 | 99 | 98.9 | 98.9 | 98.9 | 98.9 | 98.9 | 99 | 98.9 | 4 (≈ 17.2 µM) |  |
| CC(O)CCn1nnc(-c2ccccc2Cl)n1 (racemic) | 99 | 99 | 99 | 98.9 | 99 | 99 | 98.9 | 99 | 98.9 | 98.8 | 8 (≈ 31.7 µM) |  |
| CC(O)Cn1nnc(-c2ccccc2)n1 (racemic) | 98.8 | 98.9 | 98.9 | 98.8 | 98.8 | 98.7 | 98.7 | 98.7 | 98.8 | 98.8 |  |  |
| Cc1ccc(-c2nnn(CC(C)O)n2)cc1 (racemic) | 98.8 | 98.9 | 98.9 | 98.9 | 98.8 | 98.9 | 99 | 98.9 | 99 | 98.9 |  |  |
| CC(O)Cn1nnc(-c2ccccc2Cl)n1 (racemic) | 98.9 | 99 | 99 | 98.9 | 99 | 99.1 | 99 | 99 | 99 | 98.9 | 0.125 (≈ 0.524 µM) |  |
| C[C@@H]1[C@H](O)[C@@H](C)/C=C/C=C/C=C/C=C/C=C/C=C/C=C/[C@H](O[C@@H]2O[C@H](C)[C@@H](O)[C@H](N)[C@@H]2O)C[C@@H]2O[C@](O)(C[C@@H](O)C[C@@H](O)[C@H](O)CC[C@@H](O)C[C@@H](O)CC(=O)O[C@H]1C)C[C@H](O)[C@H]2C(=O)O [AMPHOTERICIN B] |  |  |  |  |  | 100 |  |  |  |  |  |  |

Source: ChEMBL document CHEMBL3588797, “Tetrazole activity against Candida albicans. The role of KEX2 mutations in the sensitivity to (±)-1-[5-(2-chlorophenyl)-2H-tetrazol-2-yl]propan-2-yl acetate” (Bioorg Med Chem Lett, 2015)
